Source: patent US10590373B2, “Systems and methods for biomimetic fluid processing” (BRIGHAM AND WOMEN'S HOSPITAL, INC., priority 2014, dated 2020)

Test system: mouse fetal liver culture-derived (mFLC) MKs
Assay: shear-induced proPLT production and PLT release by MKs in the microfluidic device after drug incubation
Type: cell-based
Details: for PLT release: under both static and physiological shear conditions; for shear-induced proPLT production: physiological shear
Method: Devices were coated with a 0.22 μm filtered 10% BSA solution (Millipore, Billerica, Mass.) for 30 minutes to prevent direct cell contact with glass. Referring to FIG. 1, primary MKs and media were infused in the first inlet 118 and second inlet 122, respectively, at a rate of 12.5 μL/hour using a two-syringe microfluidic pump (Harvard Apparatus, Holliston, Mass.). When the first outlet 120 was closed, both input solutions were redirected toward the second outlet 124 causing primary MKs to trap.
For shear cultures, MKs were loaded onto ‘naked’ microfluidic devices (only BSA-coated), and the infusion rate was doubled incrementally from 12.5 μL/hr to 200 μL/hr over a 2 hour period. For static cultures, isolated MKs were pipetted into chambers formed by mounting a glass coverslide coated with 3% BSA onto a […] with a 1 cm hole and cultured for 24 hours. Both static and shear cultures were maintained at 37 degrees C. and 5 percent CO2 and examined on a Zeiss Axiovert 200 (Carl Zeiss, Thornwood, N.Y.) equipped with 10× (numerical aperature, 0.30) Plan-Neofluar air objective. Differential interference contrast (DIC) images were obtained using CCD camera (Hamamatsu Photonics, Boston, Mass.) at either 2 second (shear cultures) or 20 minute (static cultures) intervals. Images were analyzed using the Metamorph version 7.7.2.0 image analysis software (Molecular Devices, Sunnyvale, Calif., USA) and ImageJ software version 1.47p. ProPLT extension rates were determined manually for over 200 MKs from at least three independent samples. For PLT spreading experiments, effluent was collected from microfluidic devices after 2 hours and pipetted into uncoated static culture chambers, described above. PLTs were permitted to contact glass by gravity sedimentation and spreading was captured at 5 second intervals over a 5 minute period.
In vivo BM MKs extend proPLTs in the direction of blood flow and release PLTs, proPLTs, large cytoplasmic fragments (prePLTs), and even whole MKs into sinusoidal blood vessels which may be trapping in the pulmonary microvascular bed, or otherwise maturing in the circulation. To determine the effect of physiological shear on PLT production, mouse fetal liver culture-derived (mFLC) MKs were isolated on culture day 4 and characterized by size and ploidy before being infused into the microfluidic device (shown in FIG. 3A).
While shear rates were kept constant, proPLT extension rates varied at different positions along the shaft, predictive of a regulated cytoskeletal driven mechanism of proPLT elongation (shown in FIG. 4C). […]

Compound	PLT release (5 μM Jas)	shear-induced proPLT production (MKs incubated with 5 μM Jas prior to infusion in microfluidic device)	PLT release (1 mM EHNA)	shear-induced proPLT production (MKs incubated with 1 mM EHNA prior to infusion in microfluidic device)
C/C1=C\[C@H](C)C[C@H](C)OC(=O)C[C@H](c2ccc(O)cc2)NC(=O)[C@@H](Cc2c(Br)[nH]c3ccccc23)N(C)C(=O)[C@H](C)NC(=O)[C@@H](C)C1 [Jas, Jasplankinolide]	inhibited	inhibit	–	–
CCCCCC[C@@H]([C@@H](C)O)n1cnc2c(N)ncnc21 (racemic) [EHNA]	–	–	inhibited	inhibit
